# Earlier results in patent US8155888B2, “Method and apparatus for assessing polypeptide aggregation” (Cambridge University Technical Services Ltd., priority 2003, dated 2012).
# Read-outs that look alike come from different tables or passages of the source. Where no end group is shown, it is not given here.
# Key:
# [1] = not given; remark: listed apart in the source
# [2] = not given; remark: listed apart in the source
# [3] = mutant versus wild type; growth phase only; from literature data
# [4] = Table 1, neutral pH, partition coefficients from water to octanol
# [5] = Table 5, neutral pH, partition coefficients from water to octanol
# [6] = Table 1, normalised from 0 (high) to 1 (low)
# [7] = Table 5, normalized from 0 (high) to 1 (low)
Compound,hydrophobicity [4],hydrophobicity [5],"β-sheet propensity [1, 6]","β-sheet propensity [1, 7]","charge ([2]; Table 1, neutral pH)","charge ([2]; Table 5, neutral pH)",observed ln(νmut/νwt) [3],other results
C[C@H](N)C(=O)O [Ala (A)],-0.0932 kcal/mol,-0.39 kcal/mol,0.47,0.47,0,0,,
NC(=O)C[C@H](N)C(=O)O [Asn (N)],0.457 kcal/mol,1.91 kcal/mol,0.40,0.40,0,0,,
"N[C@@H](CC(=O)O)C(=O)O [Asp (D), aspartic acid]",0.911 kcal/mol,3.81 kcal/mol,0.72,0.72,−1,−1,,
N[C@@H](CS)C(=O)O [Cys (C)],-0.0598 kcal/mol,-0.25 kcal/mol,0.25,0.25,0,0,,
NC(=O)CC[C@H](N)C(=O)O [Gln (Q)],0.311 kcal/mol,1.30 kcal/mol,0.34,0.34,0,0,,
"N[C@@H](CCC(=O)O)C(=O)O [Glu (E), glutamic acid]",,,0.35,0.35,−1,−1,,
"NCC(=O)O [Gly (G), glycine]",0 kcal/mol,0.00 kcal/mol,0.60,0.60,0,0,,
"N[C@@H](Cc1c[nH]cn1)C(=O)O [His (H), histidine]",0.153 kcal/mol,0.64 kcal/mol,0.37,0.37,0,0,,"hydrophobicity (Table 1, value in brackets, pH lower than 6.0, histidine positively charged): 0.686 kcal/mol; hydrophobicity (Table 5, value in brackets, pH lower than 6.0, histidine positively charged): 2.87 kcal/mol; charge ([2]; Table 1, value in brackets, pH lower than 6.0): +1; charge ([2]; Table 5, value in brackets, pH lower than 6.0): +1"
CC[C@H](C)[C@H](N)C(=O)O [Ile (I)],-0.435 kcal/mol,-1.82 kcal/mol,0.10,0.10,0,0,,
CSCC[C@H](N)C(=O)O [Met (M)],-0.229 kcal/mol,-0.96 kcal/mol,0.26,0.26,0,0,,
"N[C@@H](Cc1ccccc1)C(=O)O [Phe (F), phenylalanine]",-0.543 kcal/mol,-2.27 kcal/mol,0.13,0.13,0,0,,
"O=C(O)[C@@H]1CCCN1 [Pro (P), proline]",-0.237 kcal/mol,-0.99 kcal/mol,,,0,0,,
"N[C@@H](CO)C(=O)O [Ser (S), serine]",0.296 kcal/mol,1.24 kcal/mol,0.30,0.30,0,0,,
C[C@@H](O)[C@H](N)C(=O)O [Thr (T)],0.239 kcal/mol,1.00 kcal/mol,0.06,0.06,0,0,,
N[C@@H](Cc1ccc(O)cc1)C(=O)O [Tyr (Y)],-0.351 kcal/mol,-1.47 kcal/mol,0.11,0.11,0,0,,
CC(C)[C@H](N)C(=O)O [Val (V)],,-1.30 kcal/mol,0.13,0.13,0,0,,
A21G: A21G mutation of Aβ (amyloid-β peptide),,,,,,,−0.07,
D23N: D23N mutation of Aβ (amyloid-β peptide),,,,,,,3.97,
E22G: E22G mutation of Aβ (amyloid-β peptide),,,,,,,2.03,
E22K: E22K mutation of Aβ (amyloid-β peptide),,,,,,,0.92,
E22Q: E22Q mutation of Aβ (amyloid-β peptide),,,,,,,2.92,
F19T: F19T mutation of Aβ (amyloid-β peptide),,,,,,,−2.48,
"F23A: single-point mutation F23A of amylin (KCNTATCATQRLANFLVHSSNNAGAILSSTNVGSNTY; ends and bridges not checked; cysteine pairing not given here; UniProt P10997 34-70, looked up, variant F23A)",,,,,,,−2.65,
"G24A: single-point mutation G24A of amylin (KCNTATCATQRLANFLVHSSNNFAAILSSTNVGSNTY; ends and bridges not checked; cysteine pairing not given here; UniProt P10997 34-70, looked up, variant G24A)",,,,,,,−0.03,
"I26A: single-point mutation I26A of amylin (KCNTATCATQRLANFLVHSSNNFGAALSSTNVGSNTY; ends and bridges not checked; cysteine pairing not given here; UniProt P10997 34-70, looked up, variant I26A)",,,,,,,−2.39,
"L27A: single-point mutation L27A of amylin (KCNTATCATQRLANFLVHSSNNFGAIASSTNVGSNTY; ends and bridges not checked; cysteine pairing not given here; UniProt P10997 34-70, looked up, variant L27A)",,,,,,,−0.93,
"N22A: single-point mutation N22A of amylin (KCNTATCATQRLANFLVHSSNAFGAILSSTNVGSNTY; ends and bridges not checked; cysteine pairing not given here; UniProt P10997 34-70, looked up, variant N22A)",,,,,,,0.69,
"S20G: S20G mutation of amylin (KCNTATCATQRLANFLVHSGNNFGAILSSTNVGSNTY; ends and bridges not checked; cysteine pairing not given here; UniProt P10997 34-70, looked up, variant S20G)",,,,,,,1.01,
